Counter-ions that a name gives are not always drawn.
Experiment: Bloodwork: complete blood count, electrolytes, extended blood chemistry
Format: in vivo, sheep
Experimental: Indirect blood pressure, pulse recording, pain testing (mechanical stimulus device, cold and warm water baths see description in procedure) and weight were taken on days 1, 3, 7, 15, 22, 29, 36, and 43. Venous blood samples (15 ml drawn from the jugular vein with Vacutainer brand blood collection tubes) for complete blood count, electrolytes, and extended blood chemistry were drawn on days 1, 15, and 43 (mild procedure only light hand restraint necessary).

[1] = sheep Chicken Hawk #87, 5 mg/day, Day 1
[2] = sheep Chicken Hawk #87, 5 mg/day, Day 15
[3] = sheep Chicken Hawk #87, 5 mg/day, Day 43
[4] = sheep Elmer Fudd #437, 5 mg/day, Baseline
[5] = sheep Elmer Fudd #437, 5 mg/day, Day 1
[6] = sheep Elmer Fudd #437, 5 mg/day, Day 15
[7] = sheep Elmer Fudd #437, 5 mg/day, Day 43

Cc1ncc2n1-c1ccc(Cl)cc1C(c1ccccc1F)=NC2 [Midazolam, midazolam hydrochloride]
Glucose [1]: 67 mg/dL | Hct [1]: 34.1% | Hgb [1]: 11.7 g/dL | K+ [1]: 4.5 mEq/l | MCH [1]: 30.9 pg | MCHC [1]: 34.3 g/dL | MCV [1]: 30.19 fL | Na+ [1]: 150 mEq/l | Phos [1]: 6.6 mg/dL | Platlet Count [1]: 1.28e+06 µL⁻¹ | RBC [1]: 1.1e+07 µL⁻¹ | Total Bili [1]: 0.1 mg/dL | Total Prot [1]: 5.7 g/dL | WBC [1]: 6000 µL⁻¹ | ALT [2]: 6 U/L | AST [2]: 58 U/L | Albumin [2]: 3.8 g/dL | Alk Phos [2]: 79 U/L | BUN [2]: 17 mg/dL | CPK [2]: 425 U/L | Cholesterol [2]: 61 mg/dL | Creatinine [2]: 1.3 mg/dL | Differential Count: Atyp lym [2]: 0% | Differential Count: Baso [2]: 1% | Differential Count: Eosin [2]: 4% | Differential Count: Lymph [2]: 62% | Differential Count: Mono [2]: 4% | Differential Count: Seg [2]: 29% | Gamma GT [2]: 64 U/L | Glucose [2]: 79 mg/dL | Hct [2]: 29.8% | Hgb [2]: 10.0 g/dL | K+ [2]: 4.7 mEq/l | MCH [2]: 10.4 pg | MCHC [2]: 33.6 g/dL | MCV [2]: 30.8 fL | Na+ [2]: 148 mEq/l | Phos [2]: 5.0 mg/dL | Platlet Count [2]: 1.018e+06 µL⁻¹ | RBC [2]: 9.7e+06 µL⁻¹ | Total Bili [2]: 0.1 mg/dL | Total Prot [2]: 6.2 g/dL | WBC [2]: 5690 µL⁻¹ | ALT [3]: 8 U/L | AST [3]: 62 U/L | Albumin [3]: 3.8 g/dL | Alk Phos [3]: 149 U/L | BUN [3]: 14 mg/dL | CPK [3]: 61 U/L | Cholesterol [3]: 62 mg/dL | Creatinine [3]: 1.1 mg/dL | Differential Count: Atyp lym [3]: 1% | Differential Count: Baso [3]: 1% | Differential Count: Eosin [3]: 5% | Differential Count: Lymph [3]: 53% | Differential Count: Mono [3]: 3% | Differential Count: Seg [3]: 37% | Gamma GT [3]: 55 U/L | Glucose [3]: 82 mg/dL | Hct [3]: 32.3% | Hgb [3]: 10.7 g/dL | K+ [3]: 5.0 mEq/l | MCH [3]: 10.5 pg | MCHC [3]: 33.0 g/dL | MCV [3]: 31.7 fL | Na+ [3]: 147 mEq/l | Phos [3]: 6.5 mg/dL | Platlet Count [3]: 891000 µL⁻¹ | RBC [3]: 1.02e+07 µL⁻¹ | Total Bili [3]: 0.1 mg/dL | Total Prot [3]: 6.5 g/dL | WBC [3]: 5130 µL⁻¹ | Differential Count: Atyp lym [4]: 0% | Differential Count: Bands [4]: 0% | Differential Count: Eosin [4]: 54% | Differential Count: Lymph [4]: 35% | Differential Count: Mono [4]: 9% | Differential Count: Seg [4]: 51% | Hct [4]: 38.5% | Hgb [4]: 13.4 g/dL | MCH [4]: 12.0 pg | MCHC [4]: 34.7 G/dl | MCV [4]: 34.5 fL | Platlet Count [4]: 562000 µL⁻¹ | RBC [4]: 1.12e+07 µL⁻¹ | WBC [4]: 5320 µL⁻¹ | ALT [5]: 8 U/L | AST [5]: 70 U/L | Albumin [5]: 4.1 g/dL | Alk Phos [5]: 49 U/L | BUN [5]: 17 mg/dL | CPK [5]: 49 U/L | Cholesterol [5]: 78 mg/dL | Creatinine [5]: 1.3 mg/dL | Differential Count: Atyp lym [5]: 0% | Differential Count: Bands [5]: 1% | Differential Count: Eosin [5]: 1% | Differential Count: Lymph [5]: 31% | Differential Count: Mono [5]: 6% | Differential Count: Seg [5]: 61% | Gamma GT [5]: 51 U/L | Glucose [5]: 104 mg/dL | Hct [5]: 36.1% | Hgb [5]: 12.4 g/dL | K+ [5]: 4.7 mEq/l | MCH [5]: 11.4 pg | MCHC [5]: 34.3 G/dl | MCV [5]: 33.4 fL | Na+ [5]: 150 mEq/l | Phos [5]: 5.9 mg/dL | Platlet Count [5]: 788000 µL⁻¹ | RBC [5]: 1.08e+07 µL⁻¹ | Total Bili [5]: 0.1 mg/dL | Total Prot [5]: 7.4 g/dL | WBC [5]: 6600 µL⁻¹ | ALT [6]: 6 U/L | AST [6]: 67 U/L | Albumin [6]: 3.8 g/dL | Alk Phos [6]: 88 U/L | BUN [6]: 15 mg/dL | CPK [6]: 77 U/L | Cholesterol [6]: 74 mg/dL | Creatinine [6]: 1.2 mg/dL | Differential Count: Atyp lym [6]: 0% | Differential Count: Bands [6]: 0% | Differential Count: Eosin [6]: 10% | Differential Count: Lymph [6]: 39% | Differential Count: Mono [6]: 2% | Differential Count: Seg [6]: 49% | Gamma GT [6]: 54 U/L | Glucose [6]: 73 mg/dL | Hct [6]: 37.3% | Hgb [6]: 12.7 g/dL | K+ [6]: 4.7 mEq/l | MCH [6]: 11.2 pg | MCHC [6]: 34.1 G/dl | MCV [6]: 32.8 fL | Na+ [6]: 149 mEq/l | Phos [6]: 6.6 mg/dL | Platlet Count [6]: 677000 µL⁻¹ | RBC [6]: 1.14e+07 µL⁻¹ | Total Bili [6]: 0.1 mg/dL | Total Prot [6]: 6.8 g/dL | WBC [6]: 4990 µL⁻¹ | ALT [7]: 9 U/L | AST [7]: 61 U/L | Albumin [7]: 4.1 g/dL | Alk Phos [7]: 72 U/L | BUN [7]: 16 mg/dL
